pIC50: −log10 of the molar value.

The target of this assay is T1, UGT8 (Homo sapiens, UniProt Q16880).
T1 construct: host or cells: OE19 cells
T1 sequence (Q16880 21-541): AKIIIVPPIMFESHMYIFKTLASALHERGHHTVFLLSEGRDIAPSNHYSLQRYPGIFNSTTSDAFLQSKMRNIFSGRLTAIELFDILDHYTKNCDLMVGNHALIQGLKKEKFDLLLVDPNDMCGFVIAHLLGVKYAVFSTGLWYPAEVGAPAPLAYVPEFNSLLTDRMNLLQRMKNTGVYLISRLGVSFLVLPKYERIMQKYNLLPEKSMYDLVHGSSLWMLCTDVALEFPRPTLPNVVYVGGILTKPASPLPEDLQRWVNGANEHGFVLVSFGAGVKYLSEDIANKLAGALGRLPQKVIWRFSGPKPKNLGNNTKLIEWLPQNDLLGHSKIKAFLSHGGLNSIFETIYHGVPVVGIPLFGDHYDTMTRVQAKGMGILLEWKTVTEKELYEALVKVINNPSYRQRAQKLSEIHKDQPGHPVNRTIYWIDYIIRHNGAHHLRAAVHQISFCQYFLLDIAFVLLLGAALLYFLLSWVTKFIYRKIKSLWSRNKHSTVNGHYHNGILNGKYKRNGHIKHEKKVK
Put plainly: In vitro sulfatide (SFT) synthesis inhibition in OE19 cells, LC-MS/MS readout. The assay is classed as cell-based. The conditions noted are these: 72 hr, sulfatide by LC-MS/MS, read-out: Potency range (IC50, In-vitro SFT). The procedure: For medium throughput screening, library compounds were dispensed into CellBIND 384 well plates to a final concentration of 10 μM. OE19 cells (Sigma) were grown in to 70-90% confluency in RPMI 1640+L-glutamine and […]; were trypsinized to achieve suspension and were aliquoted at 2,500 cells/well, total well volume 50 μl. Plates were incubated 72 hr at 37° C. in 5% CO2; supernatant was removed and plates were dried, heat-sealed and stored at −20° C. until analysis.
For IC50 determinations, the same procedure was followed except that test compounds were added to the plate as dose-downs in triplicate to yield concentration response curves.
Mass Spectrometer Analysis of Sulfatide (SFT):
Assay plates were thawed and 85 μl mobile phase B (5 mM ammonium formate^+0.2% formic acid in 50:50 methanol:acetonitrile). Fifteen μl 20 ng/ml C17 SFT in mobile phase B was added as an internal standard.
SFT was analyzed using an Applied Biosystems API-4000 triple quad mass spectrometer interfaced to a Thermo Scientific Multiplex system (LX-4) equipped with four pumps. Chromatography of OE19 cell samples or 2B5-mouse cells treated with compounds was performed using a Waters Acquity UPLC BEH C8 2.1×50 mm column with 1.7 um particle size. The chromatography was performed using the following mobile phases. Mobile phase A (MPA): 0.2% formic acid and 5 mM ammonium formate in deionized water; MPB: see above. The LC method was run in isocratic mode for 4 sequentially running columns using 95% MPB and 5% MPA with flow rate of 1 ml/min and a column temperature of 60° C.
The Triple quad mass spectrometer was run in Negative Ionization mode monitoring the following MRM transitions and using the following parameters:
Electrospray voltage was […], and source temperature was 550° C.

Consider `CC[C@H](C)NC(=O)OC1CCN(c2cc(C(F)(F)F)c3scc(C(=O)NC)c3n2)CC1` [Example 63, 1-(3-(Methylcarbamoyl)-7-(trifluoromethyl)thieno[3,2-b]pyridin-5-yl)piperidin-4-yl (S)-sec-butylcarbamate], for which the pIC50 (as a rule, the negative decadic logarithm of the IC50, by convention in mol/L) was over 7.00.
Under `CNC(=O)c1csc2c(C(F)(F)F)c(Cl)c(N3CCC(OC(=O)NCC4CC4)CC3)nc12` [Example 638, [1-[6-Chloro-3-(methylcarbamoyl)-7-(trifluoromethyl)thieno[3,2-b]pyridin-5-yl]-4-piperidyl] N-(cyclopropylmethyl)carbamate] stands over 7.00.
Take `CNC(=O)c1csc2c(C(F)(F)F)cc(N3CC(Oc4cncc(F)c4)C3)nc12` [Example 190, 5-(3-((5-Fluoropyridin-3-yl)oxy)azetidin-1-yl)-N-methyl-7-(trifluoromethyl)thieno[3,2-b]pyridine-3-carboxamide]: the pIC50 is 6.00 to 7.00.
Under `CC(C)NC(=O)CN1CCN(c2cc(C(F)(F)F)c3scc(C(=O)N4CCC4)c3n2)CC1` [Example 649, 2-[4-[3-(Azetidine-1-carbonyl)-7-(trifluoromethyl)thieno[3,2-b]pyridin-5-yl]piperazin-1-yl]-N-isopropyl-acetamide] stands 6.00 to 7.00.
Under `CNC(=O)c1csc2c(C(F)(F)F)cc(O[C@H]3C[C@@H](OC(=O)NC4COC4)C3)nc12` [Example 822, (+/−)-cis-(1S,3S)-3-((3-(Methylcarbamoyl)-7-(trifluoromethyl)thieno[3,2-b]pyridin-5-yl)oxy)cyclobutyl oxetan-3-ylcarbamate] stands 6.00 to 7.00; under `CNC(=O)c1csc2c(C(F)(F)F)c(F)c(N3CCC(OC(=O)NC4CC4)CC3)nc12` [Example 641, [1-[6-fluoro-3-(methylcarbamoyl)-7-(trifluoromethyl)thieno[3,2-b]pyridin-5-yl]-4-piperidyl] N-cyclopropylcarbamate], over 7.00; under `CNC(=O)c1csc2c(C(F)(F)F)cc(OC3CC4(C3)CN(C(=O)O[C@@H](C)COC(F)(F)F)C4)nc12` [Example 853, (S)-1-(Trifluoromethoxy)propan-2-yl 6-((3-(methylcarbamoyl)-7-(trifluoromethyl)thieno[3,2-b]pyridin-5-yl)oxy)-2-azaspiro[3.3]heptane-2-carboxylate], over 7.00.
Turning to `CNC(=O)c1csc2c(C(F)(F)F)c(C)c(N3CCC(OC(=O)N[C@@H](C)C4CC4)CC3)nc12` [Example 151, 1-(6-Methyl-3-(methylcarbamoyl)-7-(trifluoromethyl)thieno[3,2-b]pyridin-5-yl)piperidin-4-yl (S)-(1-cyclopropylethyl)carbamate], the pIC50 was over 7.00.
For `CNC(=O)c1csc2c(C(F)(F)F)c(C)c(OC3CCN(C(=O)OC(C)(C)C)CC3)nc12` [Example 389, tert-Butyl 4-((6-methyl-3-(methylcarbamoyl)-7-(trifluoromethyl)thieno[3,2-b]pyridin-5-yl)oxy)piperidine-1-carboxylate], the pIC50 is over 7.00.
Under `CNC(=O)c1csc2c(C(F)(F)F)cc(OC3CC4COCC(C3)N4C(=O)OCCOC(F)(F)F)nc12` (racemic) [Example 629, 2-(Trifluoromethoxy)ethyl (+/−)-endo7-((3-(methylcarbamoyl)-7-(trifluoromethyl)thieno[3,2-b]pyridin-5-yl)oxy)-3-oxa-9-azabicyclo[3.3.]nonane-9-carboxylate] stands over 7.00; under `CNC(=O)c1csc2c(C(F)(F)F)cc(O[C@H]3CN(C(=O)OCCOC(F)(F)F)C[C@H]3F)nc12` (racemic) [Example 611, 2-(Trifluoromethoxy)ethyl (+/−)-cis-3-fluoro-4-((3-(methylcarbamoyl)-7-(trifluoromethyl)thieno[3,2-b]pyridin-5-yl)oxy)pyrrolidine-1-carboxylate], over 7.00.
`CNC(=O)c1csc2c(C(F)(F)F)c(Cl)c(N3CCC(OC(=O)NC4CC4)CC3)nc12` [Example 640, [1-[6-Chloro-3-(methylcarbamoyl)-7-(trifluoromethyl)thieno[3,2-b]pyridin-5-yl]-4-piperidyl] N-cyclopropylcarbamate]: the pIC50 is over 7.00.
With `CNC(=O)c1csc2c(C(F)(F)F)nc(N3CCC(OC(=O)N[C@@H](C)COC)CC3)nc12` [Example 186, 1-(7-(Methylcarbamoyl)-4-(trifluoromethyl)thieno[3,2-d]pyrimidin-2-yl)piperidin-4-yl (S)-(1-methoxypropan-2-yl)carbamate] the figure was over 7.00; with `COC(=O)c1csc2c(C(F)(F)F)cc(C3CCN(C(=O)OC(C)(C)C)CC3)nc12` [Example 274, Methyl 5-(1-(tert-butoxycarbonyl)piperidin-4-yl)-7-(trifluoromethyl)thieno[3,2-b]pyridine-3-carboxylate], 6.00 to 7.00; with `CNC(=O)c1csc2c(C(F)(F)F)cc(OC3CC4COCC(C3)N4C(=O)OC(C)(C)C)nc12` (racemic) [Example 628, tert-Butyl (+/−)-endo7-((3-(methylcarbamoyl)-7-(trifluoromethyl)thieno[3,2-b]pyridin-5-yl)oxy)-3-oxa-9-azabicyclo[3.3.1]nonane-9-carboxylate], 6.00 to 7.00.
With `CNC(=O)c1c(OC)sc2c(C(F)(F)F)c(Cl)c(N3CCN(CC(=O)NC(C)C)CC3)nc12` [Example 637, 6-Chloro-5-[4-[2-(isopropylamino)-2-oxo-ethyl]piperazin-1-yl]-2-methoxy-N-methyl-7-(trifluoromethyl)thieno[3,2-b]pyridine-3-carboxamide] the figure was 6.00 to 7.00.
With `CNC(=O)c1csc2c(C(F)(F)F)cc(O[C@@H]3CCN(C(=O)OCCOC(F)(F)F)[C@H](C)C3)nc12` (racemic) [Example 371, (+/−)-cis-2-(Trifluoromethoxy)ethyl-2-methyl-4-((3-(methylcarbamoyl)-7-(trifluoromethyl)thieno[3,2-b]pyridin-5-yl)oxy)piperidine-1-carboxylate] the figure was over 7.00; with `CNC(=O)c1csc2c(C(F)(F)F)cc(C3CCN(C(=O)O[C@@H](C)C4CC4)CC3)nc12` [Example 566, (S)-1-Cyclopropylethyl 4-(3-(methylcarbamoyl)-7-(trifluoromethyl)thieno[3,2-b]pyridin-5-yl)piperidine-1-carboxylate], over 7.00.
`CNC(=O)c1csc2c(C(F)(F)F)cc(N3CCC(OC(=O)N4C[C@@H](N(C)C)[C@@H]4C)CC3)nc12` [Example 794, 1-(3-(Methylcarbamoyl)-7-(trifluoromethyl)thieno[3,2-b]pyridin-5-yl)piperidin-4-yl (2S,3R)-3-(dimethylamino)-2-methylazetidine-1-carboxylate]: the pIC50 was over 7.00.
As to `CC(C)NC(=O)c1csc2c(C(F)(F)F)cc(N3CCC(NC4CCC(C(F)(F)F)CC4)C3)nc12` (centres unmarked) [Example 419, N-Isopropyl-7-(trifluoromethyl)-5-(3-((4-(trifluoromethyl)cyclohexyl)amino)pyrrolidin-1-yl)thieno[3,2-b]pyridine-3-carboxamide], the pIC50 was under 6.00.
With `CNC(=O)c1csc2c(C(F)(F)F)cc(O[C@@H]3CN(C(=O)OC(C)(C)C)C[C@@H]3F)nc12` (racemic) [Example 609, tert-Butyl (+/−)-cis-3-fluoro-4-((3-(methylcarbamoyl)-7-(trifluoromethyl)thieno[3,2-b]pyridin-5-yl)oxy)pyrrolidine-1-carboxylate] the figure was over 7.00; with `CNC(=O)c1csc2c(C(F)(F)F)cc(N3CCC(NC(=O)OCC(C)C)CC3)nc12` [Example 297, Isobutyl (1-(3-(methylcarbamoyl)-7-(trifluoromethyl)thieno[3,2-b]pyridin-5-yl)piperidin-4-yl) carbamate], over 7.00.
Consider `CNC(=O)c1csc2c(C(F)(F)F)cc(O[C@@H]3CCN(C(=O)OC(C)(C)C)[C@H](C)C3)nc12` (racemic) [Example 370, (+/−)-tert-Butyl cis-2-methyl-4-((3-(methylcarbamoyl)-7-(trifluoromethyl)thieno[3,2-b]pyridin-5-yl)oxy)piperidine-1-carboxylate], for which the pIC50 was over 7.00.

The values above are taken from patent US11098056B2, “UDP glycosyltransferase inhibitors and methods of use” (GENZYME CORPORATION, priority 2018, dated 2021).
